Results reported in patent US7273886B2 (Genentech, Inc., priority 2003, dated 2007).
≈ marks a conversion by molar mass, not a printed value.

Key:
Solubility in water = assay type: physicochemical; settings: aqueous buffer, thermodynamic from solid, amorphous solid
[1] = Plasma concentrations following IV bolus administration in rhesus monkey; assay type: in vivo; settings: IV bolus 1 mg/kg
Procedure: Dosing of Benzofuran Compounds in Rhesus Monkeys
IV Bolus: Inhibitors were formulated in a 1 mg/ml solution of 20–30% PEG 400/sterile water. The drug was administered as an IV bolus over 1 minute at 1 mg/kg. 1.0 ml blood samples were collected at each time point on 20 μl 8.5% K2EDTA. Blood samples for the IV dosed animals were be collected from a short, large bore catheter (needle <25G) placed in the saphenous or cephalic vein for all time points up to 3 hours after dosing. The catheters were then removed, the animals returned to their cages and latter samples collected by venipuncture. Venipuncture samples can be obtained from any superficial vein that can easily be compressed (e.g. cephalic, or saphenous but not from the femoral plexus). Sample time points were taken generally at the following times: pre-dose, 2, 5, 10, 20, 30, 40, 60, 90, 120, 150, 180 minutes and at 4, 6, 12, 24, and 48 hours.

TFVIIa = target: T1, TFVIIa (Homo sapiens, UniProt P08709); assay: Tissue Factor/Factor VIIa antagonist assay (Ki); assay type: biochemical
T1 construct: recombinant human factor VIIa; NB #25942–16
Procedure: Tissue Factor/Factor VIIa Antagonist Assay
This procedure can be used to determine the constant of inhibition (Ki) for a sample compound of the invention.
• Assay Buffer: 100 mM Hepes pH 7.8, 140 mM NaCl, 0.1% PEG-8000, 0.02% Tween-80, 5 mM CaCl2 Coagulation • Factor: recombinant human factor VIIa (NB #25942–16) • Cofactor: soluble Tissue Factor (1-219) • Substrate: Chromozym-tPA (Boehringer Mannheim, Cat. #1093 037) Reconstitute at 20 mM in H2O. Dilute to 4 mM in assay buffer with CaCl2 prior to use. • Samples: Dilute samples to 3% DMSO in assay buffer (lacking CaCl2). Procedure: • 1. Prepare a solution of 2 μg/mL (90 nM) tissue factor and 1.5 μg/mL (30 nM) factor VIIa in assay buffer with CaCl2. • 2. Incubate for 15 minutes at room temperature. • 3. Add 50 μL sample to each well. • 4. Add 50 μL tissue factor/factor VIIa solution to each well. • 5. Incubate for 15 minutes at room temperature with gentle agitation. • 6. Add 50 μL substrate to each well. • 7. Agitate plate for 20–25 sec. • 8. Monitor absorbance at 405 nm every 10 sec for a total of 5 minutes at room temperature. • 9. Calculate Vmax over 10 points.

Plasma Kallikrein = target: T2, Plasma Kallikrein (Homo sapiens, UniProt P03952); assay: Plasma Kallikrein assay (Ki); assay type: biochemical
T2 construct: human Factor Xa, Thrombin, or Plasma Kallikrein (Hematologic Technologies); purchased Hematologic Technologies
Procedure: (§1) Factor Xa, Thrombin, and Plasma Kallikrein Assays
(§2) These procedures can be used to determine the constant of inhibition (Ki) for a sample compound of the invention.
(§3) • Assay Buffer: 100 mM Hepes pH 7.8, 140 mM NaCl, 0.1% PEG-8000, 0.02% Tween-80 • Coagulation human Factor Xa, Thrombin, or Plasma Kallikrein (Hematologic Technologies) • Factor: Dilute to 0.45 μg/mL (9.8 nM) in assay buffer. • Substrate: S-2222, S2366 or S2302—(See below—Chromogenix Inc,) Reconstitute at 5 mM in H2O. Dilute to 1.5 mM in assay buffer prior to use. • Samples: Dilute samples to 3% DMSO in assay buffer. Procedure: • 1. Add 50 μL sample to each well. • 2. Add 50 μL appropriately diluted coagulation factor to each well. • 3. Incubate for 5 minutes at room temperature with gentle agitation. • 4. Add 50 μL appropriately diluted substrate to each well. • 5. Agitate plate for 20–25 sec. • 6. Monitor absorbance at 405 nm every 10 sec for a total of 5 minutes at room temperature. • 7. Calculate Vmax over 10 points. Assay—Enzyme, Substrate and Final Concentrations

XIIA = target: T3, XIIA (Homo sapiens, UniProt P00748); assay: XIIA inhibition (Ki); assay type: biochemical
T3 sequence (P00748 373-615 limits assumed): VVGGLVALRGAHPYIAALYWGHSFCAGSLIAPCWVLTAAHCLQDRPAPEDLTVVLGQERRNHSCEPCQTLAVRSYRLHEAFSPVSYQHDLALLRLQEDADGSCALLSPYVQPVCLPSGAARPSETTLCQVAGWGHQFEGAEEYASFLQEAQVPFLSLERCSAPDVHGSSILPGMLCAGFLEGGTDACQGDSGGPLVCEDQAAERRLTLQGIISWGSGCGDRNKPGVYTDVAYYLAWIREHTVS

Chymotrypsin = Chymotrypsin inhibition (Ki); assay type: biochemical
Urokinase = Urokinase (Homo sapiens, UniProt P00749); assay: Urokinase inhibition (Ki); assay type: biochemical
Trypsin = Trypsin inhibition (Ki); assay type: biochemical
Thrombin = target: T4, Thrombin (Homo sapiens, UniProt P00734); assay: Thrombin assay (Ki); assay type: biochemical
T4 construct: rapidly converts prothrombin to thrombin; purchased Hematologic Technologies
Procedure: as §1, §2, §3

F. Xa = target: T5, F. Xa (Homo sapiens, UniProt P00742); assay: Factor Xa assay (Ki); assay type: biochemical
T5 construct: This complex converts factor X to Xa; purchased Hematologic Technologies
Procedure: as §1, §2, §3

APC [2] = target: APC (Homo sapiens, UniProt P04070); assay: APC inhibition (Ki); assay type: biochemical; settings: APC
APC [3] = assay: APC inhibition (Ki); assay type: biochemical; settings: APC relative to TFVIIa
Acetylcholinesterase = Acetylcholinesterase (Homo sapiens, UniProt P22303); assay: Acetylcholinesterase inhibition (Ki); assay type: biochemical
HGFA = target: T6, HGFA (Homo sapiens, UniProt Q04756); assay: HGFA inhibition (Ki); assay type: biochemical
T6 sequence (Q04756 373-655): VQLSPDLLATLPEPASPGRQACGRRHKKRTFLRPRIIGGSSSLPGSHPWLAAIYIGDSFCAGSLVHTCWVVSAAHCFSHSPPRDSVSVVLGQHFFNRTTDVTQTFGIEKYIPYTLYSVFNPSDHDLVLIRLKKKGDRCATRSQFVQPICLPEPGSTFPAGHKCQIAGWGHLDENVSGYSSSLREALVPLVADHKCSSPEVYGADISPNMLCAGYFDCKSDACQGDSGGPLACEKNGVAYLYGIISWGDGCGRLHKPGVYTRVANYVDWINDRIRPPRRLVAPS

tPA = tPA (Homo sapiens, UniProt P00750); assay: tPA inhibition (Ki); assay type: biochemical
XIA [4] = assay: XIA inhibition (Ki); assay type: biochemical; settings: XIA relative to TFVIIa
XIA [5] = target: XIA (Homo sapiens, UniProt P03951); assay: XIA inhibition (Ki); assay type: biochemical; settings: XIA
Complement CS1 = target: T7, Complement CS1 (Homo sapiens, UniProt P09871); assay: Complement CS1 inhibition (Ki); assay type: biochemical
T7 sequence (P09871 16-688): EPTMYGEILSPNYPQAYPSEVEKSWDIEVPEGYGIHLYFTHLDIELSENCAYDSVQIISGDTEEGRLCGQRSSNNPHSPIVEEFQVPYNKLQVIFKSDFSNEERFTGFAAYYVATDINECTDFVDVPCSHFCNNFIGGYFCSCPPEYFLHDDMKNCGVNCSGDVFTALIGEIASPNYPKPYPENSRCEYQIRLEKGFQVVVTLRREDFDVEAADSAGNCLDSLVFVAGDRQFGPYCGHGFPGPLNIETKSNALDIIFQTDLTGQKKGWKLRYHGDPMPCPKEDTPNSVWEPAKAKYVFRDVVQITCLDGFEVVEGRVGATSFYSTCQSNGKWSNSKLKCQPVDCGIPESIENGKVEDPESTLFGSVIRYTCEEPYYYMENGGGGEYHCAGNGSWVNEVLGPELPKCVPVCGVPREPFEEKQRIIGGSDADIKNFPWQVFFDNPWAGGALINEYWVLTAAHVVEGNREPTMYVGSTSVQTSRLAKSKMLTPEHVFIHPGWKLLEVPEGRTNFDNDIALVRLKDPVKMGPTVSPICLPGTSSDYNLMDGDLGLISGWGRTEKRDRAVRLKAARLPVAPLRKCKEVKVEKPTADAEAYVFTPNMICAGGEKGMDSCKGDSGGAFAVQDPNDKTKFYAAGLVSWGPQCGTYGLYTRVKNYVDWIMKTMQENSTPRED

Plasmin = Plasmin (Homo sapiens, UniProt P00747); assay: Plasmin inhibition (Ki); assay type: biochemical
Sequence of Plasmin (P00747 581-810 limits assumed, species assumed): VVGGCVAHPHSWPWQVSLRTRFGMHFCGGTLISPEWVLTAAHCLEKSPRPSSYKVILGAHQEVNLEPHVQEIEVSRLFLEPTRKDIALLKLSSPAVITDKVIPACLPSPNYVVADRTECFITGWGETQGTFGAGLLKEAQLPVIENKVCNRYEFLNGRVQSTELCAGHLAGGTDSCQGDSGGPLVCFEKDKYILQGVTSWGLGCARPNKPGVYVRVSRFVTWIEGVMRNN
Sequence of Plasmin (P00747 97-580 limits assumed, species assumed): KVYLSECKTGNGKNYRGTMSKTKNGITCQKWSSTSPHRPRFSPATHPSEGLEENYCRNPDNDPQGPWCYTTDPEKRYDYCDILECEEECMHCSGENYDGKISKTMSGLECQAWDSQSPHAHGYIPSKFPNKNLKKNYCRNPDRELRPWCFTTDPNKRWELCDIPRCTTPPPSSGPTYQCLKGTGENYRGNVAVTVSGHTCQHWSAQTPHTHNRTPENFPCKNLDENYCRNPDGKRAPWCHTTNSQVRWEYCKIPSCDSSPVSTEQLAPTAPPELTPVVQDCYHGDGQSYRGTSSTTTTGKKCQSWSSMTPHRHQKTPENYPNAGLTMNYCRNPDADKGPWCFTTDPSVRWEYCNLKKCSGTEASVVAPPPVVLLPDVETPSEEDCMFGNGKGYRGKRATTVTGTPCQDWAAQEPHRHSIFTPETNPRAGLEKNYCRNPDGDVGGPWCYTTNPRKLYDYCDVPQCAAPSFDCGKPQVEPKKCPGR

T2 sequence (P03952 20-390 limits assumed): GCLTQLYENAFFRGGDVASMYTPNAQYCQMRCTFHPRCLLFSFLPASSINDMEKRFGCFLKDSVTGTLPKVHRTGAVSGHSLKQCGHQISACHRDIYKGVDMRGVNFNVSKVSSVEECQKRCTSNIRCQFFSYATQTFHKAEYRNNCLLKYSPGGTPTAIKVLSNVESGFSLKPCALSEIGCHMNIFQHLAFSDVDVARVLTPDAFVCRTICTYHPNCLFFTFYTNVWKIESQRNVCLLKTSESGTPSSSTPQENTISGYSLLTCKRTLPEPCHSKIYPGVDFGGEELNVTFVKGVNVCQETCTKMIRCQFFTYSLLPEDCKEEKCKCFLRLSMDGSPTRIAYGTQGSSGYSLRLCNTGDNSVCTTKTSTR
T2 sequence (P03952 391-638 limits assumed): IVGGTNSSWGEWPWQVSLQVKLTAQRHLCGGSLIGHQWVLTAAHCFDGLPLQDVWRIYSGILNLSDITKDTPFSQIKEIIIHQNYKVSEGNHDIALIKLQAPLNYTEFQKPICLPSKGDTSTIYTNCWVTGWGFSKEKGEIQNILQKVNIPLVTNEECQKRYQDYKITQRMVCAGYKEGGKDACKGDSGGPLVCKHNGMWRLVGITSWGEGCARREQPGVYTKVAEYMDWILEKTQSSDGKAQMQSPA
Sequence of Acetylcholinesterase (P22303 32-614, species assumed): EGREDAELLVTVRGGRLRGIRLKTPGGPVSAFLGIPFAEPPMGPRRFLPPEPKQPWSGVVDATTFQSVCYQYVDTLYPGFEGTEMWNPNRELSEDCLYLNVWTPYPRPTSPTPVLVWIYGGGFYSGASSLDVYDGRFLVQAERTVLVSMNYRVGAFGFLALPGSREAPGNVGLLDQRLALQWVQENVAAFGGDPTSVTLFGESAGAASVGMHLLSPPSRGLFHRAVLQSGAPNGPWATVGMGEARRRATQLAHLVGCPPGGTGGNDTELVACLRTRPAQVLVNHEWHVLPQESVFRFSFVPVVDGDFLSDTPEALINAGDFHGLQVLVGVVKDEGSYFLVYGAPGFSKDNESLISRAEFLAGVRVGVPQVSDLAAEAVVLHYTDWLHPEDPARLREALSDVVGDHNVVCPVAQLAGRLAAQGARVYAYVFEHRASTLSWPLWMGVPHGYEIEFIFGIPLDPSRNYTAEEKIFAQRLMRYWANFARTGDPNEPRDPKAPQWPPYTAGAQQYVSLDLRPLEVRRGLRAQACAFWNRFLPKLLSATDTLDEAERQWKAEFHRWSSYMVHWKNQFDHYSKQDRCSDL
T1 sequence (P08709 61-212 limits assumed): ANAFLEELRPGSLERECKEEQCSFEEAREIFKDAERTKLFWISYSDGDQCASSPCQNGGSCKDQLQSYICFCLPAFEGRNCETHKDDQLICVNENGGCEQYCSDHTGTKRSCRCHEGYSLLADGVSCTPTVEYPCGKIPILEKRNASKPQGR
T1 sequence (P08709 213-466 limits assumed): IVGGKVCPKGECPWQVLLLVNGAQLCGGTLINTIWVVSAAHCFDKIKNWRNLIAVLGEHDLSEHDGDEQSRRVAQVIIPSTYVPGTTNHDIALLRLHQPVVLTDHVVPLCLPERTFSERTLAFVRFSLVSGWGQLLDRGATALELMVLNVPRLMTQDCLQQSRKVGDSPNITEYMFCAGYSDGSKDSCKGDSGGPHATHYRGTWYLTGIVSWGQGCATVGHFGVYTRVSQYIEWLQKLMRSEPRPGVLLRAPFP
T1 sequence (P13726 33-251 partner limits assumed): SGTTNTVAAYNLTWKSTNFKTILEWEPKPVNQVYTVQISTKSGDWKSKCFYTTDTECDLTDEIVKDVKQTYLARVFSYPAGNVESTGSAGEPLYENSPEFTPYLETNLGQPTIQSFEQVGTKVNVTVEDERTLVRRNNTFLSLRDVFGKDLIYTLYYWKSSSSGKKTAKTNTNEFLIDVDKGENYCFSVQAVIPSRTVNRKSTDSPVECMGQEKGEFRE
Sequence of tPA (P00750 36-562, species assumed): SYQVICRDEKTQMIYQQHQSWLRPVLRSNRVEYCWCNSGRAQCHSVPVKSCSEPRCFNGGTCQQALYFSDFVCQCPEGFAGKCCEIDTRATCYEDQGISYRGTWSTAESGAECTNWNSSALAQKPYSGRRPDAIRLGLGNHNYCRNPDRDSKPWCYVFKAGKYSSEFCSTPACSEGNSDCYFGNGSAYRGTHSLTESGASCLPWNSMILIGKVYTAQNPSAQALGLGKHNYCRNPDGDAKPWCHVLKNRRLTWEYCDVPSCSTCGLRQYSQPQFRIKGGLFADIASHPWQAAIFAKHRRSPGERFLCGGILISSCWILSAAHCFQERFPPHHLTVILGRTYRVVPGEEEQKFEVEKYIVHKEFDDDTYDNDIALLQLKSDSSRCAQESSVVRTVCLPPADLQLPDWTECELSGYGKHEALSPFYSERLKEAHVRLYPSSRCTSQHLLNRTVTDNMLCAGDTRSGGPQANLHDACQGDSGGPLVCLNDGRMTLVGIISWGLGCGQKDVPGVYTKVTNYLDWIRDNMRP
T5 sequence (P00742 41-179 limits assumed): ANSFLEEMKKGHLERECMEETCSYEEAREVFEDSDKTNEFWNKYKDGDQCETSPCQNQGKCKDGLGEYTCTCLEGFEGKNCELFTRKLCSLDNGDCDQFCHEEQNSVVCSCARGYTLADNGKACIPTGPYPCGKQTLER
T5 sequence (P00742 235-488 limits assumed): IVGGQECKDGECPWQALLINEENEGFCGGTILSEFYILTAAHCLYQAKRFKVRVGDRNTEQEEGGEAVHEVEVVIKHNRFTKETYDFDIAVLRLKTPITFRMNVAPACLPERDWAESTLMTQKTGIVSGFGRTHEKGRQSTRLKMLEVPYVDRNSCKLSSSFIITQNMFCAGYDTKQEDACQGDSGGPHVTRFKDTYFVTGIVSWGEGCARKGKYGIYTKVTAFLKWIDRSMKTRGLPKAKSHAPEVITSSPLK
Sequence of XIA (Homo sapiens, UniProt P03951) (P03951 388-625 limits assumed): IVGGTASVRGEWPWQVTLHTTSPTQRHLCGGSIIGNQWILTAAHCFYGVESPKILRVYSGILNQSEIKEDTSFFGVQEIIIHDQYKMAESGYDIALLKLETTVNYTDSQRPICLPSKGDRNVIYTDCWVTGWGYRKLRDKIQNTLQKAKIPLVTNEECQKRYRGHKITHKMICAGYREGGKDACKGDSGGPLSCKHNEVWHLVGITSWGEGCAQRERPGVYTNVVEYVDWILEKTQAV
Sequence of APC (Homo sapiens, UniProt P04070) (P04070 212-461 limits assumed): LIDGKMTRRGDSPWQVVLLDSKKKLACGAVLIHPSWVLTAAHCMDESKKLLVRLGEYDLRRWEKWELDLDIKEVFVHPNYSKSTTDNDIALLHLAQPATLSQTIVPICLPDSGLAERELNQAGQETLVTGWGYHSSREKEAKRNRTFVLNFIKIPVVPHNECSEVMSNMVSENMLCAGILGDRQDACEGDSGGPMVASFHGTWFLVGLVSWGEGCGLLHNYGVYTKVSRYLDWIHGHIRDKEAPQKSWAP

CCc1cc(C(Nc2ccc(/C(N)=N\OCc3ccc(OC)cc3)cc2)C(=O)NS(N)(=O)=O)cc2c(C)coc12 (stereo not shown) [Compound 26]
solubility (Solubility in water; pH 2): 115 µM (≈ 65 µg/mL)
solubility (Solubility in water; pH 6.5): 98 µM (≈ 55.4 µg/mL)

CCOc1cc(OCC)cc(C(Nc2ccc(C(=N)N)cc2)C(=O)NS(=O)(=O)CC)c1 (stereo not shown)
clearance [1]: 8.6 mL/min/kg body weight
half-life ([1]; plasma): 1.25 h

CCc1cc(C(Nc2ccc(C(=N)N)cc2)C(=O)NS(N)(=O)=O)cc2c(C)coc12 (stereo not shown) [Compound 8]
Ki (TFVIIa; TFVIIa): 4 nM
Selectivity (TFVIIa; TFVIIa (reference)): 1 X
Ki (Plasma Kallikrein; Plasma Kallikrein): 82 nM
Selectivity (Plasma Kallikrein; Plasma Kallikrein relative to TFVIIa): 20 X
Ki (XIIA; XIIA): > 8700 nM
Selectivity (XIIA; XIIA relative to TFVIIa): >2175 X
Ki (Chymotrypsin; Chymotrypsin): > 6900 nM
Selectivity (Chymotrypsin; Chymotrypsin relative to TFVIIa): >1725 X
Ki (Urokinase; Urokinase): > 6800 nM
Selectivity (Urokinase; Urokinase relative to TFVIIa): >1700 X
Ki (Trypsin; Trypsin): 2100 nM
Selectivity (Trypsin; Trypsin relative to TFVIIa): 525 X
Ki (Thrombin; Thrombin): 830 nM
Selectivity (Thrombin; Thrombin relative to TFVIIa): 207 X
Ki (F. Xa; F. Xa): > 7000 nM
Selectivity (F. Xa; F. Xa relative to TFVIIa): >1750 X
Ki (APC [2]): 1440 nM
Selectivity (APC [3]): 360 X
Ki (Acetylcholinesterase): > 6800 nM
Selectivity (Acetylcholinesterase; Acetylcholinesterase relative to TFVIIa): 1700 X
Ki (HGFA; HGFA): 6400 nM
Selectivity (HGFA; HGFA relative to TFVIIa): 1600 X
Ki (tPA; tPA): > 7800 nM
Selectivity (tPA; tPA relative to TFVIIa): >1950 X
Selectivity (XIA [4]): >2000 X
Ki (XIA [5]): > 8000 nM
Ki (Complement CS1; Complement CS1): > 6500 nM
Selectivity (Complement CS1; Complement CS1 relative to TFVIIa): >1625 X
Ki (Plasmin; Plasmin): 880 nM
Selectivity (Plasmin; Plasmin relative to TFVIIa): 220 X
